# From PubChem BioAssay (NCI)
# Values joined by “and” are separate entries in the source; they are usually repeats but may differ in a detail not shown here. Equal entries are not always repeated.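 Grown in 96-well plates, cells were treated for 48 hours with each compound at five concentrations. Insufficient inhibition: endpoint recorded as highest concentration tested. Here, GI50 denotes the concentration required for 50% inhibition of growth. TGI marks complete inhibition of growth.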
# System: SF-295 CNS
# Assay: DTP human tumour cell line panel, 48 h
row,Compound,TGI
1,CC(NC(=O)Cc1ccccc1)NC(=O)C(C)C(=O)Nc1ccccc1 (stereo not drawn),> 100 µM
2,CCOC(=O)c1c(-c2ccc(O)c(OC)c2)c(C#N)c(=S)n(C2OC(CO)C(O)C(O)C2O)c1-c1ccccc1 (stereo not drawn),> 100 µM
3,C=C1CC(C#N)(C#N)[C@H]2C3CCCC3C[C@@H]12 (stereo partly drawn) (tested in a mixture with another compound),39.4 µM
4,COC(C)(C)C1(O)CC[C@@H](C)CC1=O (stereo partly drawn),> 100 µM
5,Nc1ccc(N=Nc2c(S(=O)(=O)O)cc3ccccc3c2S(=O)(=O)O)cc1,> 100 µM

# System: TK-10 renal
# Assay: DTP human tumour cell line panel, 48 h
Compound,TGI,GI50
CC1=CCC([C@@](C)(O)CCCC(C)(C)N=C=S)CC1 (stereo partly drawn),37.8 µM,–
CCN1CN(c2ccccc2)C2(CCN(CC3COc4ccccc4O3)CC2)C1=O (stereo not drawn),> 100 µM,–
C=C1C(=O)CC2C1CC(=O)/C(C)=C/CCC(C)(O)C2O (stereo not drawn),8.51 µM,–
O=C1C=C/C(=N\N=C(c2ccccc2)c2ccccc2)O1,> 10 µM,–
N[C@@H](Cc1ccccc1)C(=O)N1CCC[C@@H]1P(=O)(Oc1ccccc1)Oc1ccccc1,> 100 µM,–
Cc1ccc(/C=N\NC2c3cc(Cl)ccc3Nc3nc(=O)[nH]c(C)c32)cc1 (stereo not drawn),> 100 µM,–
O=c1[nH][nH]c(=O)n1CCCCCCn1c(=O)[nH][nH]c1=O,> 100 µM,–
C[C@H](CCC(=O)O)[C@H]1CC[C@H]2[C@@H]3C(=O)C[C@@H]4C[C@H](O)CC[C@]4(C)[C@H]3C[C@H](O)[C@]12C,> 100 µM,–
CC(=O)NC1C(OCc2ccccc2)OC(CO)C(O)C1OCC(=O)N[C@@H](C)C(=O)N[C@H](CCC(=O)NCCCNc1c2ccccc2nc2cccc([N+](=O)[O-])c12)C(N)=O (stereo partly drawn),1.55 µM,–
COc1ccc(-c2nc(SCC(=O)NNC(=S)Nc3ccccc3)[nH]c2-c2ccc(OC)cc2)cc1,> 100 µM,–
O=C(O)c1ccccc1CC(Cc1ccc2c(c1)CCC2)C(=O)O (stereo not drawn),> 100 µM,–
COC(=O)/C=C\C(C#N)(C#N)N=Cc1ccc(C)cc1,3.65 µM,–
CC(c1ccccc1)N1CCN(C(C)c2ccccc2)CC1 (stereo not drawn),> 100 µM,–
CCCCCC#CCOC(=O)C(=[N+]=[N-])P(=O)(c1ccccc1)c1ccccc1,> 10 µM,–
COc1ccc(C(=O)/C=C/c2ccc(OCCCOc3ccc(/C=C/C(=O)c4ccc(OC)cc4)cc3)cc2)cc1,> 100 µM,–
CCOc1cc(/C=C2/C(C)=NN(c3cccc(Cl)c3)/C2=N/c2nc3ccccc3s2)ccc1O,> 100 µM,–
O=C(O)COc1ccccc1C(=O)Nc1ccccc1,> 100 µM,–
COc1cc(OC)cc(C(=O)CC(=O)c2cc(OC)cc(OC)c2)c1,> 100 µM,–
COc1ccc(C2c3cn[nH]c3CC3CCCCC32)cc1 (stereo not drawn),37.1 µM,–
O=C1CC2(CCC(O)(c3ccc4ccccc4c3)C(C(=O)c3ccc4ccccc4c3)C2)C(=O)c2ccccc2N1 (stereo not drawn),> 100 µM,–

Compound,TGI,GI50
Cc1nc(C)c(N2CCN([N+](=O)[O-])CC2)c(=O)[nH]1,> 100 µM,–
CCOC(=O)N1CCC(N[C@@H]2c3cc4c(cc3C(c3cc(OC)c(O)c(OC)c3)C3C(=O)OC[C@@H]32)OCO4)CC1 (stereo partly drawn),11.9 µM and 9.5 µM,2.09 µM and 4.27 µM
CCOC(=O)C1S/C(=N\C(=N)N[N+](=O)[O-])N=C1C (stereo not drawn),> 100 µM,–
O=[N+]([O-])C(=C(Nc1cccc2cccnc12)Nc1cccc2cccnc12)C(Cl)=C(Cl)Cl,> 100 µM,–
CCCCCCCCCCCCCCCCNc1cccc2ccccc12,> 100 µM,–
O=C1OCC/C1=N/O,> 100 µM,–
CC(O)CNC(=O)C(C)Oc1ccc(OCC2CCCCC2)cc1 (stereo not drawn),> 100 µM,–
CSC1=N/C(=C\c2ccc(C)cc2)C(=O)N1CN1CCCCC1,> 100 µM,–
Cc1ccc(C2=CC(=O)OC(C[P+](c3ccccc3)(c3ccccc3)c3ccccc3)(c3ccccc3)O2)cc1 (stereo not drawn),35.6 µM,–
Cc1ccc(S(=O)(=O)n2c3c(c4ccccc42)CCN2C[C@H]([C@H](C)Br)CC[C@@H]32)cc1,> 100 µM,–
O=c1oc2cc(O)ccc2c(O)c1C(c1ccccc1)c1c(O)c2ccc(O)cc2oc1=O,> 100 µM,–
O=C(NCP(=O)(Oc1ccccc1)Oc1ccccc1)OCc1ccccc1,> 100 µM,–
Cc1c(/C=N\NC(=S)NCCNC(=S)N/N=C\c2c(C)n(C)n(-c3ccccc3)c2=O)c(=O)n(-c2ccccc2)n1C,> 100 µM,–
O=P(O)(O)C(N=C(Nc1ccccc1)Nc1ccccc1)P(=O)(O)O,> 100 µM,–
Cc1c(O)nc(-n2[nH]c3c(c2=O)CCCC3)[nH]c1=O,> 100 µM,–
C=CCn1c(=O)c(C(=O)Nc2nc(C34CC5CC(CC(C5)C3)C4)cs2)c(O)c2ccccc21,> 100 µM,–
CC(NC(=O)Cc1ccccc1)NC(=O)C(C)C(=O)Nc1ccccc1 (stereo not drawn),> 100 µM,–
C=C1CC(C#N)(C#N)[C@H]2C3CCCC3C[C@@H]12 (stereo partly drawn) (tested in a mixture with another compound),> 100 µM,–
COC(C)(C)C1(O)CC[C@@H](C)CC1=O (stereo partly drawn),> 100 µM,–
Nc1ccc(N=Nc2c(S(=O)(=O)O)cc3ccccc3c2S(=O)(=O)O)cc1,> 100 µM,–

# System: SK-MEL-2 melanoma
# Assay: DTP human tumour cell line panel, 48 h
row,Compound,TGI
1,CC1=CCC([C@@](C)(O)CCCC(C)(C)N=C=S)CC1 (stereo partly drawn),33.3 µM
2,CCN1CN(c2ccccc2)C2(CCN(CC3COc4ccccc4O3)CC2)C1=O (stereo not drawn),30.7 µM
3,C=C1C(=O)CC2C1CC(=O)/C(C)=C/CCC(C)(O)C2O (stereo not drawn),22.9 µM
4,N[C@@H](Cc1ccccc1)C(=O)N1CCC[C@@H]1P(=O)(Oc1ccccc1)Oc1ccccc1,> 100 µM
5,Cc1ccc(/C=N\NC2c3cc(Cl)ccc3Nc3nc(=O)[nH]c(C)c32)cc1 (stereo not drawn),> 100 µM
6,O=c1[nH][nH]c(=O)n1CCCCCCn1c(=O)[nH][nH]c1=O,> 100 µM
7,C[C@H](CCC(=O)O)[C@H]1CC[C@H]2[C@@H]3C(=O)C[C@@H]4C[C@H](O)CC[C@]4(C)[C@H]3C[C@H](O)[C@]12C,> 100 µM
8,COc1ccc(-c2nc(SCC(=O)NNC(=S)Nc3ccccc3)[nH]c2-c2ccc(OC)cc2)cc1,34.7 µM
9,O=C(O)c1ccccc1CC(Cc1ccc2c(c1)CCC2)C(=O)O (stereo not drawn),> 100 µM
10,Cn1c(SCc2ccc(F)cc2)nnc1C12CC3CC(CC(C3)C1)C2,> 100 µM
11,COC(=O)/C=C\C(C#N)(C#N)N=Cc1ccc(C)cc1,32.1 µM
12,CC(c1ccccc1)N1CCN(C(C)c2ccccc2)CC1 (stereo not drawn),> 100 µM
13,COc1ccc(C(=O)/C=C/c2ccc(OCCCOc3ccc(/C=C/C(=O)c4ccc(OC)cc4)cc3)cc2)cc1,> 100 µM
14,CCOc1cc(/C=C2/C(C)=NN(c3cccc(Cl)c3)/C2=N/c2nc3ccccc3s2)ccc1O,41.4 µM
15,O=C(O)COc1ccccc1C(=O)Nc1ccccc1,> 100 µM
16,COc1ccc(C2c3cn[nH]c3CC3CCCCC32)cc1 (stereo not drawn),32.5 µM
17,O=C(O)[C@H]1CCCN1CP(=O)(O)CN1CCC[C@@H]1C(=O)O,> 100 µM
18,O=C1CC2(CCC(O)(c3ccc4ccccc4c3)C(C(=O)c3ccc4ccccc4c3)C2)C(=O)c2ccccc2N1 (stereo not drawn),> 100 µM

row,Compound,TGI
1,COc1cc2c(cc1OC)C(C(c1ccccc1)c1ccccc1)N(C)CC2 (stereo not drawn),> 100 µM
2,CCOC(=O)N1CCC(N[C@@H]2c3cc4c(cc3C(c3cc(OC)c(O)c(OC)c3)C3C(=O)OC[C@@H]32)OCO4)CC1 (stereo partly drawn),14.9 µM and 11.3 µM
3,C[N+](C)([O-])CCOc1cc2c(c3ccccc13)-c1ccccc1C2=O,33.2 µM
4,CCOC(=O)C1S/C(=N\C(=N)N[N+](=O)[O-])N=C1C (stereo not drawn),> 100 µM
5,O=[N+]([O-])C(=C(Nc1cccc2cccnc12)Nc1cccc2cccnc12)C(Cl)=C(Cl)Cl,> 54 µM
6,CNc1cc2c(c3ccccc13)C(CCl)CN2C(=O)c1cc2cc(OC)c(OC)c(OC)c2[nH]1 (stereo not drawn),0.0197 µM
7,O=C1OCC/C1=N/O,> 100 µM
8,CC(O)CNC(=O)C(C)Oc1ccc(OCC2CCCCC2)cc1 (stereo not drawn),> 100 µM
9,CSC1=N/C(=C\c2ccc(C)cc2)C(=O)N1CN1CCCCC1,> 100 µM
10,Cc1ccc(C2=CC(=O)OC(C[P+](c3ccccc3)(c3ccccc3)c3ccccc3)(c3ccccc3)O2)cc1 (stereo not drawn),29.2 µM
11,Cc1ccc(S(=O)(=O)n2c3c(c4ccccc42)CCN2C[C@H]([C@H](C)Br)CC[C@@H]32)cc1,> 100 µM
12,O=c1oc2cc(O)ccc2c(O)c1C(c1ccccc1)c1c(O)c2ccc(O)cc2oc1=O,> 100 µM
13,O=C(NCP(=O)(Oc1ccccc1)Oc1ccccc1)OCc1ccccc1,> 100 µM
14,Cc1c(/C=N\NC(=S)NCCNC(=S)N/N=C\c2c(C)n(C)n(-c3ccccc3)c2=O)c(=O)n(-c2ccccc2)n1C,> 100 µM
15,Cc1c(O)nc(-n2[nH]c3c(c2=O)CCCC3)[nH]c1=O,> 100 µM
16,CC(NC(=O)Cc1ccccc1)NC(=O)C(C)C(=O)Nc1ccccc1 (stereo not drawn),> 100 µM
17,Nc1ccc(N=Nc2c(S(=O)(=O)O)cc3ccccc3c2S(=O)(=O)O)cc1,> 100 µM

# System: MDA-MB-231 breast
# Assay: DTP human tumour cell line panel, 48 h
row,Compound,TGI
1,CC1=CCC([C@@](C)(O)CCCC(C)(C)N=C=S)CC1 (stereo partly drawn),36.7 µM
2,CCN1CN(c2ccccc2)C2(CCN(CC3COc4ccccc4O3)CC2)C1=O (stereo not drawn),4.78 µM
3,C=C1C(=O)CC2C1CC(=O)/C(C)=C/CCC(C)(O)C2O (stereo not drawn),25.2 µM
4,O=C1C=C/C(=N\N=C(c2ccccc2)c2ccccc2)O1,> 10 µM
5,N[C@@H](Cc1ccccc1)C(=O)N1CCC[C@@H]1P(=O)(Oc1ccccc1)Oc1ccccc1,> 100 µM
6,O=c1[nH][nH]c(=O)n1CCCCCCn1c(=O)[nH][nH]c1=O,> 100 µM
7,C[C@H](CCC(=O)O)[C@H]1CC[C@H]2[C@@H]3C(=O)C[C@@H]4C[C@H](O)CC[C@]4(C)[C@H]3C[C@H](O)[C@]12C,> 100 µM
8,CC(=O)NC1C(OCc2ccccc2)OC(CO)C(O)C1OCC(=O)N[C@@H](C)C(=O)N[C@H](CCC(=O)NCCCNc1c2ccccc2nc2cccc([N+](=O)[O-])c12)C(N)=O (stereo partly drawn),0.45 µM
9,COc1ccc(-c2nc(SCC(=O)NNC(=S)Nc3ccccc3)[nH]c2-c2ccc(OC)cc2)cc1,95.4 µM
10,O=C(O)c1ccccc1CC(Cc1ccc2c(c1)CCC2)C(=O)O (stereo not drawn),> 100 µM
11,Cn1c(SCc2ccc(F)cc2)nnc1C12CC3CC(CC(C3)C1)C2,94.5 µM
12,COC(=O)/C=C\C(C#N)(C#N)N=Cc1ccc(C)cc1,30.1 µM
13,CC(c1ccccc1)N1CCN(C(C)c2ccccc2)CC1 (stereo not drawn),> 100 µM
14,CCCCCC#CCOC(=O)C(=[N+]=[N-])P(=O)(c1ccccc1)c1ccccc1,> 10 µM
15,COc1ccc(C(=O)/C=C/c2ccc(OCCCOc3ccc(/C=C/C(=O)c4ccc(OC)cc4)cc3)cc2)cc1,> 100 µM
16,CCOc1cc(/C=C2/C(C)=NN(c3cccc(Cl)c3)/C2=N/c2nc3ccccc3s2)ccc1O,59.6 µM
17,COc1ccc(C2c3cn[nH]c3CC3CCCCC32)cc1 (stereo not drawn),30.4 µM
